The values that follow come from ChEMBL document CHEMBL1201862, “PubChem BioAssay data set” (2004).

Among the test systems are NCI/ADR-RES; HCC 2998; OVCAR-3; A498; SNB-19; NCI-H522; SN12C; SK-MEL-5; CAKI-1; UO-31; BT-549; SK-MEL-28; SW-620; UACC-257; RXF 393; SK-OV-3; NCI-H226; SR; HL-60; CCRF-CEM.
What all share (experiment): inhibition of tumour cell growth, NCI panel, 48 h

Structures are written as SMILES.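 Compound exposure: 48 hours, 5 concentrations, 96-well plates. The concentration for 50% growth inhibition is given as GI50.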 The source made the active and inactive calls. No stated cut-off is given here; in the data, active = GI50 up to about 1.1 µM and inactive = higher.

Consider `CCCCOc1c(C(=O)O)cc(Br)cc1C(=O)O`, for which the GI50 with NCI/ADR-RES, in the assay with HCC 2998, with OVCAR-3, in the assay on A498, with SNB-19 and in the assay on NCI-H522 was > 100 µM (inactive) throughout. Also, the GI50 with SN12C, with SK-MEL-5, in the assay with CAKI-1, in the assay with UO-31, with BT-549 and in the assay on SK-MEL-28 was > 100 µM (inactive) throughout. The GI50 in the assay on SW-620, with UACC-257, in the assay with RXF 393, in the assay on SK-OV-3 and in the assay on NCI-H226 was > 100 µM (inactive) each time.
`N=c1nc(N)c2cc3c(N)nc(=N)c3cc12`: the GI50 with HCC 2998 is 31.3 µM (inactive); in the assay on OVCAR-3, 27.9 µM (inactive); with A498 it was > 9.27 µM (inactive); in the assay on SNB-19 it was 58.6 µM (inactive); with NCI-H522, 16 µM (inactive); in the assay with SN12C it was 5.07 µM (inactive). For the same compound, the GI50 with SR is 3.83 µM (inactive); with HL-60, 2.02 µM (inactive); with SK-MEL-5, 60.8 µM (inactive); with CAKI-1, 8.38 µM (inactive); with UO-31 it was 7.5 µM (inactive); with BT-549, 3.99 µM (inactive). For the same compound, the GI50 with SK-MEL-28 is 2.45 µM (inactive); in the assay with SW-620 it was 5.27 µM (inactive); in the assay with CCRF-CEM, 2.28 µM (inactive); in the assay with UACC-257, 3.37 µM (inactive); in the assay with RXF 393, 6.32 µM (inactive); in the assay on SK-OV-3, 28.6 µM (inactive). The GI50 in the assay with NCI-H226 was 13 µM (inactive).
With `N#CC(C#N)=Cc1ccc(C=C2SC3=C(SCCS3)S2)s1`, the GI50 is 1.63 µM (inactive) in the assay with NCI/ADR-RES; 15.8 µM (inactive) with HCC 2998; 2.5 µM (inactive) with OVCAR-3; 10.4 µM (inactive) in the assay with A498; 44.1 µM (inactive) in the assay on SNB-19; 2.99 µM (inactive) in the assay on NCI-H522. In addition, the GI50 in the assay on SN12C was 66.2 µM (inactive); in the assay on HL-60, 0.286 µM (active); in the assay with SK-MEL-5, 3.33 µM (inactive); in the assay with CAKI-1, 3.47 µM (inactive); in the assay on UO-31, > 100 µM (inactive); in the assay with BT-549 it was 1.28 µM (inactive). Moreover, the GI50 with SK-MEL-28 was > 100 µM (inactive); in the assay with SW-620 it was 4.38 µM (inactive); in the assay on CCRF-CEM, 2.48 µM (inactive); with UACC-257 it was 9.38 µM (inactive); with SK-OV-3, 74.8 µM (inactive); in the assay with NCI-H226, 2.27 µM (inactive).
Turning to `CC1(C)CN(c2ccccc2)C(=O)C1OC(=O)[C@@]1(C)C[C@@H]2C=C[C@H]1C2` (some centres not stated), the GI50 with NCI/ADR-RES is 23 µM (inactive); with OVCAR-3, 39.4 µM (inactive); in the assay with A498 it was 23.8 µM (inactive); with SNB-19 it was 28.8 µM (inactive); with SN12C it was 21.3 µM (inactive); with HL-60 it was 20.3 µM (inactive). The GI50 was 14.9 µM (inactive) with SK-MEL-5; 26.5 µM (inactive) in the assay with CAKI-1; 13.7 µM (inactive) with UO-31; 33.9 µM (inactive) with BT-549; 18.1 µM (inactive) in the assay on SK-MEL-28; 33.3 µM (inactive) in the assay on SW-620. The GI50 in the assay on CCRF-CEM was 23.3 µM (inactive); in the assay with UACC-257, 24.5 µM (inactive); in the assay with RXF 393, 17.9 µM (inactive); with SK-OV-3 it was 35.1 µM (inactive); with NCI-H226 it was 23.3 µM (inactive).
In the case of `CN(C)S(=O)(=O)n1ccnc1`, the GI50 with NCI/ADR-RES, in the assay with HCC 2998, in the assay on OVCAR-3, in the assay on A498, in the assay on SNB-19 and with NCI-H522 was > 100 µM (inactive) each time. Also, the GI50 in the assay on SN12C, in the assay with SK-MEL-5, in the assay with CAKI-1, in the assay on UO-31, in the assay on BT-549 and in the assay on SK-MEL-28 was > 100 µM (inactive) throughout. For the same compound, the GI50 with SW-620, in the assay with UACC-257, in the assay with RXF 393, in the assay with SK-OV-3 and in the assay with NCI-H226 was > 100 µM (inactive) throughout.
Regarding `CCCCNCCCNCCCNC(=O)c1csc(-c2csc(CCNC(=O)C(NC(=O)C(C)C(O)C(C)NC(=O)C(NC(=O)c3nc(C(CC(N)=O)NCC(N)C(N)=O)nc(N)c3C)C(OC3OC(CO)C(O)C(O)C3OC3OC(CO)C(O)C(OC(N)=O)C3O)c3c[nH]cn3)C(C)O)n2)n1` (configuration not stated), the GI50 in the assay on HCC 2998 is 43.7 µM (inactive); in the assay on OVCAR-3, 2.86 µM (inactive); in the assay on A498, 3.65 µM (inactive); in the assay with SNB-19, 6.89 µM (inactive); in the assay on NCI-H522 it was 0.791 µM (active); in the assay with SN12C, 2.21 µM (inactive). In addition, the GI50 in the assay on SR is 6.44 µM (inactive); in the assay on HL-60 it was 14.9 µM (inactive); in the assay with SK-MEL-5, 0.247 µM (active); in the assay on CAKI-1, 0.362 µM (active); in the assay with UO-31, 0.372 µM (active); in the assay on BT-549, > 50 µM (inactive). Moreover, the GI50 was 13.6 µM (inactive) with SK-MEL-28; 15.2 µM (inactive) in the assay with SW-620; 15.6 µM (inactive) in the assay on CCRF-CEM; 14.3 µM (inactive) in the assay on UACC-257; 4.06 µM (inactive) in the assay with SK-OV-3; 0.175 µM (active) in the assay with NCI-H226.
For `O=C1OC(c2ccc([N+](=O)[O-])cc2)=N/C1=C\c1ccc(O)cc1`, the GI50 in the assay on HCC 2998, with OVCAR-3, in the assay with A498, with SNB-19, in the assay with NCI-H522 and in the assay with SN12C was > 100 µM (inactive) in each case. In addition, the GI50 with SR, in the assay on HL-60, in the assay on SK-MEL-5, in the assay with CAKI-1, with BT-549 and in the assay on SK-MEL-28 was > 100 µM (inactive) throughout. Moreover, the GI50 with SW-620, in the assay on CCRF-CEM, in the assay with UACC-257, in the assay with RXF 393, with SK-OV-3 and with NCI-H226 was > 100 µM (inactive) each time.
Consider `CN(C)c1ccc(/N=N/c2ccncc2)cc1`, for which the GI50 is 31.2 µM (inactive) in the assay with NCI/ADR-RES; 22.6 µM (inactive) in the assay on HCC 2998; > 100 µM (inactive) in the assay with OVCAR-3; > 100 µM (inactive) in the assay with A498; > 100 µM (inactive) in the assay on SNB-19; > 100 µM (inactive) in the assay on SN12C. Also, the GI50 was > 100 µM (inactive) with HL-60; 67 µM (inactive) in the assay with SK-MEL-5; > 100 µM (inactive) with CAKI-1; > 100 µM (inactive) in the assay with UO-31; 84.1 µM (inactive) in the assay on BT-549; > 100 µM (inactive) with SK-MEL-28. Besides, the GI50 in the assay on SW-620 is > 100 µM (inactive); with CCRF-CEM, > 100 µM (inactive); in the assay with UACC-257 it was > 100 µM (inactive); with RXF 393, > 100 µM (inactive); with SK-OV-3, 40 µM (inactive); with NCI-H226 it was 64.4 µM (inactive).
